Source: patent US8865741B2, “Aminoindane compounds and use thereof in treating pain” (Asana Biosciences, LLC, priority 2011, dated 2014)

Experiments:
rats = experiment: Cutaneous anesthetic activity, cutaneous trunci muscle reflex (CTMR) pin-prick model; type: in vivo, rat; conditions: 100 μL lidocaine (2%) alone, sub-cutaneous
Method: Rats were subjected to several days of acclimatization to the environment and the investigator prior to entering the study. About 24 hours before each experiment, the skin on the back of male rats was shaved using electronic clippers. The anesthetic action of test agents, following subcutaneous injection was determined using a “pin-prick” method as described by Khan (Khan et al., Anesthesiology, January 2002, 96(1): 109-116). Injection volumes were standardized at 100 μL, each injection caused a small wheal to develop—the boundary of which was marked with ink. The cutaneous trunci muscle reflex (CTMR) is a reflex movement of the skin due to twitches of the lateral thoracospinal muscles elicited by noxious stimulation of the dorsal cutaneous area. An 18-guage needle was used as the noxious stimulus; six stimuli were presented to an area of ‘normal’ skin to determine baseline sensitivity and this was then repeated in the area of the wheal. […] Data were represented as % maximal possible effect (MPE) where 100% indicates complete lack of response to each of the six needle presentations in the injected area. The extent of local anesthesia was assessed at regular intervals in order to generate efficacy-duration time plots.

[1] = system: Male Sprague Dawley (SD) rats; experiment: In vivo assay of mechanical nociception (rat pinch model, perisciatic injection); conditions: for Average Time of Analgesia: perisciatic
[2] = system: sodium channel in hTRPV1-N1E115 cells; experiment: FLIPR membrane potential assay of sodium channel response in hTRPV1-N1E115 cells, with (47° C.) or without (25° C.) heat activation of hTRPV1; type: cell-based; conditions: for hTRPV1-N1E Nav 0.1 mM (% inhibition) 25° C. / hTRPV1-N1E Nav 1 mM (% inhibition) 25° C.: 25° C. (no heat activation of hTRPV1); for hTRPV1-N1E Nav 0.1 mM (% inhibition) 47° C. / hTRPV1-N1E Nav 1 mM (% inhibition) 47° C.: 47° C. (heat activation of hTRPV1); for IC50: class symbols, read-out: hTRPV1-N1E IC50 (μM) 47° C.
From the text: In one embodiment, a modified FLIPR® (Fluorometric Imaging Plate Reader) based assay system was developed which is capable of discriminating between non-specific versus hTRPV1-mediated entry of test compounds. Advantageously, the assay system utilizes heat activated opening of hTRPV1 channels followed by an assessment of internal sodium channel block. The assay allows a permanently charged compound to selectively enter through opened hTRPV1 channels and that compound's potency in inhibiting sodium channels from the cytoplasm side of the same cell can be assessed and quantified.
The assay is readily performed in multi-well assay plates into which cells in growth media are added and incubated under conditions which permit the formation of a confluent monolayer over a period of hours prior to the start of the assay. Conventional culture media and conditions may be utilized. Duplicate cell assay plates are prepared for each experiment.
The spent media from the cell seeded plates is removed on the day of the assay and replaced with Membrane potential Dye-Blue (Molecular Devices). The dye was prepared in assay buffer following manufacturer's instructions. The dye-loaded plate is incubated at room temperature (about 25° C.) for about 30 minutes in order to pre-load the cells with dye. Optionally, the cells may be loaded with the dye simultaneously with adding the test compounds.
The test compounds are diluted in the Assay Buffer and added to each well of a specific 384-well ‘compound plate’, which serves as a source plate for compound addition using the FLIPR® platform. The concentration of compounds in the compound-plate was adjusted to achieve the desired final concentration when added to the cells in the ‘cell-plate’. After completion of the dye incubation period, the dye loaded cell-plates and the compound source plates are inserted into the FLIPR® Tetra™ device with a 384 FLIPR® tip box (Molecular Devices, Inc.) according to manufacturer's instructions. The compounds are robotically added to the dye loaded cell-plates using software integral to the FLIPR® Tetra™ instrument.
Immediately following compound addition, hTRPV1 is activated, in one of the duplicate cell plates, by heating. Specifically, entire multi-well plate containing the compound-cells mixture is incubated at 47° C. for 10 minutes, after which they are returned to room temperature (about 25° C.) for a further 30 minutes. Heat activation of hTRPV1 was omitted from the replicate cell plate which was simply maintained at room temperature for the entire 40 minutes.
A membrane potential response is elicited in the dye- and compound-loaded cells by the addition of veratridine which is a known sodium channel ‘agonist’. As illustrated in an example herein, an agonist plate containing veratridine (Sigma) is prepared in advance and is inserted into suitable devices such as, e.g., the FLIPR® TETRA® device for a “2nd addition” as instructed by the manufacturer. The concentration of veratridine in the ‘agonist plate’ was adjusted to achieve a final concentration of 100 μM when added to the cells in the cell-plate. Final concentrations of veratridine greater or lesser than 100 μM may also be used but the signal measured by the FLIPR®^Tetra™ device or another suitable device may vary accordingly.
The exposure of the cells in the cell-plate to veratridine induces sodium channels in the cells to open and the resulting ion flux produces a membrane potential depolarization that is detected as a fluorescence signal by the FLIPR® ^Tetra™ Device. The activity of test compounds is determined by their ability to attenuate the veratridine-induced fluorescence signal, the most promising compounds are those that show an enhanced activity in the heat-activated cell plate over the non-heat-activated cell plate. […]

[3] = biological target: T1, human Nav1.5 sodium channel (Homo sapiens, UniProt Q14524); experiment: Inhibition of sodium channel response in hNav1.5-HEK293 cells (FLIPR, veratridine); type: cell-based
T1 construct: host or cells: HEK-293
Method: C. Method for Assessing the Extent of Inhibition of Sodium Channel Response with Compounds in hNav1.5-HEK293 Cells.
The following assay was used to assess the tendency of the test compounds to block the dominant cardiac sodium channel isoform. Nav1.5 sodium channels are known to be permeable to quaternary sodium channel blockers such as QX-314 and, thus, the assay was performed in the absence of a chemical TRPV1 agonist.
The hNav1.5-HEK-293 cells (CreaCell, France, a human embryonic kidney cell line expressing the human Nav1.5 sodium channel) were cultured in Growth medium (containing 1×DMEM (Gibco)+10% FBS (PAA Gold)+2% Glutamine 100 mM (Gibco)+1% penicillin 10,000 U/mL streptomycin 10,000 μg/mL (Invitrogen)+1.2 mg/mL Geneticin G418 (Invitrogen)) in […] cell bind flasks (Corning). The following steps were followed exactly as mentioned. The spent medium was discarded and the cells rinsed once with PBS-1×. Accutase® (1-2 mL; PAA) solution was added. The plate was placed on a 37° C. warming incubator 3-5 minutes. As soon as cells are detached, 37° C. complete medium (9 mL) was added. The cell suspension was drawn into a sterile pipette and cells homogenized gently to dissociate cell aggregates. The cells were counted using a hemocytometer with Blue Trypan and then centrifuged 5 minutes at 400 g. The cells can be amplified or maintained by seeding […] in a T75 flask (final volume: 15 mL). 8000 cells in 50 μL Growth medium was added to each well of 384-well, clear bottomed, sterile poly-D-lysine coated plates with lid (Greiner-bio one) inside the laminar air-flow. The plates were incubated at 37° C. and 5% CO2 in a CO2 incubator (Thermo) for 48 hours.
On the day of the assay, cells were washed with Assay buffer, which was prepared using the components and amounts in Table 4. The pH was adjusted to 7.4 with NaOH, volume made up to 500 mL with Milli-Q® water.
Assay Buffer was added to the cells and incubated at rt (25° C.) for 10 minutes. The compounds were diluted in assay buffer. The compounds were added and incubated at rt (25° C.) for 10 minutes. Red FMP Dye (MDC) was added to the cells and the plate was incubated at rt (25° C.) for 30 minutes. Veratridine stock (20 mM; Sigma) was prepared in DMSO; veratridine (final concentration of 30 μM) in assay buffer was added to each well of the cell seeded plates in the FLIPR® system and read taken for 10 minutes. Table 5 provides data illustrating the sodium channel activity of the test compounds in response to the presence or absence of heat stimulation in cells expressing hTRPV1. The compounds were tested for differential activity at 25° C. and 47° C. and at two test concentrations. Compounds showing the most promising profiles were further evaluated for IC50 in the 47° C. assay, examples are shown in Table 5.

[4] = test compound 0.5%, lidocaine 2%, total injection 100 μL

T1 sequence (Q14524 whole entry): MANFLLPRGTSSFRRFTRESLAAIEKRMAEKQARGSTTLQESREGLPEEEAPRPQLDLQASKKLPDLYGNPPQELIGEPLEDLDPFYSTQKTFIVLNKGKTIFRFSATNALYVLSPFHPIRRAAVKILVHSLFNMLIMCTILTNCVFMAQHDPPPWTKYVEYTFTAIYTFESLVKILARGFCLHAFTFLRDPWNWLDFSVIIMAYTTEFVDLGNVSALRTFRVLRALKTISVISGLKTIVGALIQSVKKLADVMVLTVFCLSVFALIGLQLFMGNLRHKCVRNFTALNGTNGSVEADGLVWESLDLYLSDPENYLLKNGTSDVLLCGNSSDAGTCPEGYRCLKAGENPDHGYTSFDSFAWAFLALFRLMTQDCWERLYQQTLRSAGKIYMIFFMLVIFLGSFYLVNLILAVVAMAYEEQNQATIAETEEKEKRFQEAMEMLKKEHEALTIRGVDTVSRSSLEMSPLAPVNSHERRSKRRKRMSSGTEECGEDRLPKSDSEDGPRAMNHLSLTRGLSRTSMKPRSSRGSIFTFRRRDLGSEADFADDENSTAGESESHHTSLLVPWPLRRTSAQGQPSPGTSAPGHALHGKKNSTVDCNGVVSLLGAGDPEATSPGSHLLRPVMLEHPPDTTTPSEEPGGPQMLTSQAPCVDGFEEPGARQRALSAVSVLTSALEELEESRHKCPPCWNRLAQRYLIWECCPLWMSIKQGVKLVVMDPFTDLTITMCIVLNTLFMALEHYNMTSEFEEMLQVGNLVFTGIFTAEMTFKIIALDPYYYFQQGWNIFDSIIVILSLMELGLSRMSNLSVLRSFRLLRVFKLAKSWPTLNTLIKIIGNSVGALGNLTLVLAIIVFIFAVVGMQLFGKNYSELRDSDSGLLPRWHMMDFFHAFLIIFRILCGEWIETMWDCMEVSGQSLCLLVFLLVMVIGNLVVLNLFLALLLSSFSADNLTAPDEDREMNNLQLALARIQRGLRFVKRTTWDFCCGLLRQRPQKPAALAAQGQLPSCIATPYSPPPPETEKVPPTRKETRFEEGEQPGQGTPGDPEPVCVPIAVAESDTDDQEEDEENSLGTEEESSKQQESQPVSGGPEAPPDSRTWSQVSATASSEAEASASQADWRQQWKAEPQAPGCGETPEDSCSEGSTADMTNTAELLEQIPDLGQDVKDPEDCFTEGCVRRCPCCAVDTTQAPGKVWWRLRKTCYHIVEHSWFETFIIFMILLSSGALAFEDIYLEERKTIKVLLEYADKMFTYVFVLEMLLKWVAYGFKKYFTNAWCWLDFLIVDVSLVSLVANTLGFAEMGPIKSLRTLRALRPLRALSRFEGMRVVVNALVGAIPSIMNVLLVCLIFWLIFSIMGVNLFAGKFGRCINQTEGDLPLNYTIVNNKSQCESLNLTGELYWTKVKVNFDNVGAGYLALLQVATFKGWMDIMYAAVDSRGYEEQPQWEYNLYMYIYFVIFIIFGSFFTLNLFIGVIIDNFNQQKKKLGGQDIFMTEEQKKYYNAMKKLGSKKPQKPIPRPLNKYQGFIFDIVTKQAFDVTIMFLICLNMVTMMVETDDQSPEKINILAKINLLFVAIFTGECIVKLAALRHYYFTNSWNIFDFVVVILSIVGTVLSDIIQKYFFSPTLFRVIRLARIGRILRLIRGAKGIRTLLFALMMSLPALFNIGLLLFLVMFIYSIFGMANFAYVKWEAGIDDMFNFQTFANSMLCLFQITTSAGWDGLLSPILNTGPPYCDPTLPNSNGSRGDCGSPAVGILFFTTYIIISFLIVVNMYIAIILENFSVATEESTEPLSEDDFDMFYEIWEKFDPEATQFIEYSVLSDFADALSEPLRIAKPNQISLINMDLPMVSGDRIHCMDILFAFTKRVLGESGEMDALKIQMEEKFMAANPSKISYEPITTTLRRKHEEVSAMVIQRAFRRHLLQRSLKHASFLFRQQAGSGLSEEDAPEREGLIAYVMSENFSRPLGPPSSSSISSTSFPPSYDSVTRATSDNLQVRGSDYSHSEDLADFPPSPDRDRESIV

Row | IC50 ([2]; 47° C.) [µM] | SMILES | time of return of analgesia to baseline (rats) | analgesia (% maximal possible effect) reached (rats; for around 0.5 hours post injection) [%] | duration of anti-nociception effect ([1]; 100 μL injection volume, 0.5% compound with 2% lidocaine (Table 8)) | Average Time of Analgesia ([1]; test compound 0.25%, lidocaine 0%, total injection 200 μL) [h] | Average Time of Analgesia ([1]; test compound 0.25%, lidocaine 1%, total injection 200 μL) [h] | Average Time of Analgesia ([1]; test compound 0.5%, lidocaine 0%, total injection 200 μL) [h] | Average Time of Analgesia [1, 4] [h] | Average Time of Analgesia ([1]; test compound 0.5%, lidocaine 2%, total injection 200 μL) [h] | hTRPV1-N1E Nav 0.1 mM (% inhibition) 25° C. [2] [%] | hTRPV1-N1E Nav 0.1 mM (% inhibition) 47° C. [2] | hTRPV1-N1E Nav 1 mM (% inhibition) 25° C. [2] | hTRPV1-N1E Nav 1 mM (% inhibition) 47° C. [2] | IC50 ([3]; average, read-out: HEK Nav 1.5 IC50 (μM) (AVG)) [µM] | inhibition at 10 min, 0.5 mM ([3]; human, HEK-293 cells expressing human Nav1.5 (hNav1.5-HEK-293), pH 7.4, 0.5 mM, read-out: HEK Nav 1.5 % inh. @ 0.5 mM) [%] | inhibition at 10 min, 1.5 mM ([3]; human, HEK-293 cells expressing human Nav1.5 (hNav1.5-HEK-293), pH 7.4, 1.5 mM, read-out: HEK Nav 1.5 % inh. @ 1.5 mM) [%] | hTRPV1-N1E Nav (% inhibition) 25° C., tested at 0.5 mM ([2]; 0.5 mM (stated in cell, column head 0.1 mM), 25° C.) [%] | hTRPV1-N1E Nav (% inhibition) 47° C., tested at 0.5 mM ([2]; 0.5 mM (stated in cell, column head 0.1 mM), 47° C.)
1 |  | CCN(CC)CC(=O)Nc1c(C)cccc1C [lidocaine] | around 2 hours | 100 |  |  |  |  |  |  |  |  |  |  |  |  |  |  | 
2 | 1 to 10 | Cc1ccccc1N(CCC1CCCC[N+]1(C)C)C1Cc2ccccc2C1.[I-] (centres unmarked) [Example 24, 1,1-dimethyl-2-[2-((indan-2-yl)(2-methylphenyl)amino)ethyl]piperidinium iodide] |  |  | up to 32 hours | 4 | 24 | 12 | 32 | >168 | 25.1 | 88.5 (N = 2) % | 57.9 (N = 2) % | 84.2 (N = 2) % |  |  |  |  | 
3 | 10 to 100 | C[N+]1(C)CCCC[C@@H]1CCN(c1ccccc1)C1Cc2ccccc2C1.[I-] [Example 10, (R)-1,1-Dimethyl-2-[2-((indan-2-yl)(phenyl)amino)ethyl]piperidinium iodide] |  |  |  |  |  |  |  |  |  |  | 6.5 (N = 2) % |  | 667 | 76.1 | 97.6 | 24 | 91 (N = 2, 0.5 mM) %
4 | 10 to 100 | C[N+]1(C)CCCCC1CCN(c1ccccc1F)C1Cc2ccccc2C1.[I-] (centres unmarked) [Example 4, 1,1-dimethyl-2-[2-((2-fluorophenyl)(indan-2-yl)amino)ethyl]piperidinium iodide] |  |  |  |  |  |  | 1 |  | 0 | 94.7 (N = 3) % | 0 (N = 3) % | 67.0 (N = 3) % |  |  |  |  | 
